Among the data in patent US11813306B2, “Cyclic tetramer compounds as proprotein convertase subtilisin/kexin type 9 (PCSK9) inhibitors for the treatment of metabolic disorders” (NOVARTIS AG, priority 2018, dated 2023) are IC50 and Max % inhibition values, retold here.

The target in this test is human PCSK9 (Homo sapiens, UniProt Q8NBP7). Kind of test: PCSK9 ligand binding assay (TR-FRET): interference with binding of human PCSK9 to human LDLR. The conditions noted are these: for IC50: Human PCSK9 Alexa Fluor 647 / Human LDLR extracellular domain-Europium Kryptate; for Max % inhibition: efficacy (Amax), 100% = 1 uM unlabeled human PCSK9, 0% = DMSO. Summed up:
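Read-out was TR-FRET ratio (665 nm over 615 nm, 330 nm excitation) between Alexa Fluor 647-human PCSK9 (16 nM added) and Europium Kryptate-human LDLR ectodomain (4 nM added). Compound and PCSK9 were mixed 30 min before LDLR, then incubated 2 h. Inhibition was normalised to DMSO and unlabelled-PCSK9 controls, giving IC50 and Amax.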
A general note: Time-resolved FRET reads energy transfer from a long-lived donor to a nearby acceptor.

Chain of human PCSK9 (Q8NBP7 153-692): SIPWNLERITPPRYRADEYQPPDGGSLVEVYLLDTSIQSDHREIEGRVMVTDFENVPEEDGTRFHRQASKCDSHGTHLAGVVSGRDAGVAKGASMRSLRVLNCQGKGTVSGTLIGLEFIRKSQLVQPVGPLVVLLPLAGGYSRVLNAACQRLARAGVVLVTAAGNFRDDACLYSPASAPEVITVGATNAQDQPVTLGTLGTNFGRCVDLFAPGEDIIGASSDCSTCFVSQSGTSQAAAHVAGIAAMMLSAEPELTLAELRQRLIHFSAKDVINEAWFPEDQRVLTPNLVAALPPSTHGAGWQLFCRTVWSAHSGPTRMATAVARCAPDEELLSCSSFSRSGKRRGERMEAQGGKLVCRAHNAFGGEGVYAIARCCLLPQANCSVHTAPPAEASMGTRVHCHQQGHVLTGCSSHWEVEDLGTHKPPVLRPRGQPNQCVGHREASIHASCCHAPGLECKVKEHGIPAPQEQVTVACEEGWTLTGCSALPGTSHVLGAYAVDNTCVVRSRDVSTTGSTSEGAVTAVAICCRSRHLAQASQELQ
Chain of human PCSK9 (Q8NBP7 31-152 partner limits assumed): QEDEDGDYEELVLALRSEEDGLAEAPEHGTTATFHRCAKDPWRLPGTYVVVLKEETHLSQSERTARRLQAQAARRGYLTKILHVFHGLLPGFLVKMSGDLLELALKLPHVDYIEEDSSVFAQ

A word on the IC50: it is the point on the concentration scale where inhibition reaches its midpoint. A low value points to greater potency. `COC[C@@H]1NC(=O)[C@H](C)N(Cc2c(F)cc(Cl)cc2Oc2ccc(-c3cnc(CN)n3C)cc2)C(=O)C[C@@H](C2CC(F)(F)C2)C(=O)N2CCC[C@@](Cc3ccc(Cl)cc3)(C2)N(C)C1=O` [Compound 166, (3S, 7S, 10S, 13R)-6-(2-(4-(2-(aminomethyl)-1-methyl-1H-imidazol-5-yl)phenoxy)-4-chloro-6-fluorobenzyl)-13-(4-chlorobenzyl)-3-(3,3-difluorocyclobutyl)-10-(methoxymethyl)-7,12-dimethyl-1,6,9,12-tetraazabicyclo[11.3.1]heptadecane-2,5,8,11-tetraone]: the IC50 came out at 0.74 nM and the Max % inhibition came out at 98.1%.
`CNCc1ncc(-c2ccc(Oc3cc(Cl)cc(F)c3CN3C(=O)C[C@@H](Cc4cccc(C)n4)C(=O)N4CCC[C@@](Cc5ccc(Cl)cc5)(C4)N(C)C(=O)[C@H](COC)NC(=O)[C@@H]3C)cc2)n1C` [Compound 167, (3R,7S,10S,13R)-6-(4-chloro-2-fluoro-6-(4-(1-methyl-2-((methylamino)methyl)-1H-imidazol-5-yl)phenoxy)benzyl)-13-(4-chlorobenzyl)-10-(methoxymethyl)-7,12-dimethyl-3-((6-methylpyridin-2-yl)methyl)-1,6,9,12-tetraazabicyclo[11.3.1]heptadecane-2,5,8,11-tetraone]: the IC50 was found to be 0.9 nM and the Max % inhibition worked out at 108.6%.
Take `COC[C@@H]1NC(=O)[C@H](C)N(Cc2c(F)cc(Cl)cc2Oc2ccc(-c3cnc(CN(C)C)n3C)cc2)C(=O)C[C@@H](Cc2cccc(C)[n+]2[O-])C(=O)N2CCC[C@@](Cc3ccc(Cl)cc3)(C2)N(C)C1=O` [Compound 168, 2-(((3R, 7S, 10S, 13R)-6-(4-chloro-2-(4-(2-((dimethylamino)methyl)-1-methyl-1H-imidazol-5-yl)phenoxy)-6-fluorobenzyl)-13-(4-chlorobenzyl)-10-(methoxymethyl)-7,12-dimethyl-2,5,8,11-tetraoxo-1,6,9,12-tetraazabicyclo[11.3.1]heptadecan-3-yl)methyl)-6-methylpyridine 1-oxide]: the IC50 worked out at 0.81 nM and the Max % inhibition came out at 114.9%.
Regarding `COC[C@@H]1NC(=O)[C@H](C)N(Cc2c(F)cc(Cl)cc2Oc2ccc(-c3cnc(CN(C)C(C)(C)C)n3C)cc2)C(=O)C[C@@H](C2CC(F)(F)C2)C(=O)N2CCC[C@@](Cc3ccc(Cl)cc3)(C2)N(C)C1=O` [Compound 169, (3S, 7S, 10S, 13R)-6-(2-(4-(2-((tert-butyl(methyl)amino)methyl)-1-methyl-1H-imidazol-5-yl)phenoxy)-4-chloro-6-fluorobenzyl)-13-(4-chlorobenzyl)-3-(3,3-difluorocyclobutyl)-10-(methoxymethyl)-7,12-dimethyl-1,6,9,12-tetraazabicyclo[11.3.1]heptadecane-2,5,8,11-tetraone], the IC50 is 0.85 nM and the Max % inhibition came to 113.1%.
The like results for `Cc1cccc(C[C@@H]2CC(=O)N(Cc3c(F)cc(Cl)cc3Oc3ccc(-c4cnc(CN(C)C)n4C)cc3)[C@@H](C)C(=O)N[C@@H](CO)C(=O)N(C)[C@@]3(Cc4ccc(Cl)cc4)CCCN(C3)C2=O)n1` [Compound 170, (3R,7S,10S,13R)-6-(4-chloro-2-(4-(2-((dimethylamino)methyl)-1-methyl-1H-imidazol-5-yl)phenoxy)-6-fluorobenzyl)-13-(4-chlorobenzyl)-10-(hydroxymethyl)-7,12-dimethyl-3-((6-methylpyridin-2-yl)methyl)-1,6,9,12-tetraazabicyclo[11.3.1]heptadecane-2,5,8,11-tetraone] were, in that order, 0.73 nM and 115.0%.
For `COC[C@@H]1NC(=O)[C@H](C)N(Cc2c(F)cc(Cl)cc2Oc2ccc(-c3cnc(CN(C)C)n3C)nc2)C(=O)C[C@@H](C2CC(F)(F)C2)C(=O)N2CCC[C@@](Cc3ccc(Cl)cc3)(C2)N(C)C1=O` [Compound 171], the IC50 worked out at 1.03 nM and the Max % inhibition is 107.8%.
`CNCc1ncc(-c2ccc(Oc3cc(Cl)cc(F)c3CN3C(=O)C[C@@H](CC(F)(F)F)C(=O)N4CCC[C@@](Cc5ccc(Cl)cc5)(C4)N(C)C(=O)[C@H](COC)NC(=O)[C@@H]3C)cc2)n1C` [Compound 172, (3S, 7S, 10S, 13R)-6-(4-chloro-2-fluoro-6-(4-(1-methyl-2-((methylamino)methyl)-1H-imidazol-5-yl)phenoxy)benzyl)-13-(4-chlorobenzyl)-10-(methoxymethyl)-7,12-dimethyl-3-(2,2,2-trifluoroethyl)-1,6,9,12-tetraazabicyclo[11.3.1]heptadecane-2,5,8,11-tetraone]: the IC50 was found to be 0.57 nM and the Max % inhibition stood at 104.8%.
For `COC[C@@H]1NC(=O)[C@H](C)N(Cc2c(F)cc(Cl)cc2Oc2ccc(-c3cnc(CN(C)C)n3C)nc2)C(=O)C[C@@H](CC(F)(F)F)C(=O)N2CCC[C@@](Cc3ccc(Cl)cc3)(C2)N(C)C1=O` [Compound 173], the IC50 was 1.37 nM and the Max % inhibition was determined as 107.7%.
Consider `COC[C@@H]1NC(=O)[C@H](C)N(Cc2c(F)cc(Cl)cc2Oc2ccc(-c3cnc(CN(C)C)n3C)cc2)C(=O)C[C@@H](C2CCOCC2)C(=O)N2CCC[C@@](Cc3ccc(Cl)cc3)(C2)N(C)C1=O` [Compound 174, (3S, 7S, 10S, 13R)-6-(4-chloro-2-(4-(2-((dimethylamino)methyl)-1-methyl-1H-imidazol-5-yl)phenoxy)-6-fluorobenzyl)-13-(4-chlorobenzyl)-10-(methoxymethyl)-7,12-dimethyl-3-(tetrahydro-2H-pyran-4-yl)-1,6,9,12-tetraazabicyclo[11.3.1]heptadecane-2,5,8,11-tetraone], for which the IC50 came to 2.2 nM and the Max % inhibition was 110.7%.
Turning to `C[C@H]1C(=O)N[C@@H](COC(F)F)C(=O)N(C)[C@@]2(Cc3ccc(Cl)cc3)CCCN(C2)C(=O)[C@H](CC(F)(F)F)CC(=O)N1Cc1c(F)cc(Cl)cc1Oc1ccc(-c2cnc(CN(C)C)n2C)cc1` [Compound 175, (3S, 7S, 10S, 13R)-6-(4-chloro-2-(4-(2-((dimethylamino)methyl)-1-methyl-1H-imidazol-5-yl)phenoxy)-6-fluorobenzyl)-13-(4-chlorobenzyl)-10-((difluoromethoxy)methyl)-7,12-dimethyl-3-(2,2,2-trifluoroethyl)-1,6,9,12-tetraazabicyclo[11.3.1]heptadecane-2,5,8,11-tetraone], the IC50 came to 2.56 nM and the Max % inhibition is listed as 114.7%.
As to `COC[C@@H]1NC(=O)[C@@H](C)N(Cc2c(F)cc(Cl)cc2Oc2ccc(-c3cnc(CN(C)C)n3C)nc2)C(=O)C[C@@H](CC(F)(F)F)C(=O)N2CCC[C@@](Cc3ccc(Cl)cc3)(C2)N(C)C1=O` [Compound 176, (3S, 7R, 10S, 13R)-6-(4-chloro-2-((6-(2-((dimethylamino)methyl)-1-methyl-1H-imidazol-5-yl)pyridin-3-yl)oxy)-6-fluorobenzyl)-13-(4-chlorobenzyl)-10-(methoxymethyl)-7,12-dimethyl-3-(2,2,2-trifluoroethyl)-1,6,9,12-tetraazabicyclo[11.3.1]heptadecane-2,5,8,11-tetraone], the IC50 turned out to be 76.3 nM and the Max % inhibition was found to be 86.3%.
